Laboratory results reported in article PMC12518693, “Potent Fluorescent Probe for Target‐Engagement Studies of Allosteric Pyruvate Kinase Modulators” (Angewandte Chemie (International Ed. in English), 2025).
“And” between values parts separate entries of the source, which are not always exact repeats. Equal values may be shown once.

What was measured:
PKLNluc and PKLwt = test: Native PAGE in-gel fluorescence, PKLNluc and PKLwt; type: binding, human; conditions: IV 2.5 or 10 µM
Experimental: To study the interaction of IV with PKLNluc and its oligomers, native PAGE was performed (Figure 4). Recombinant PKLNluc was incubated for 2 h with IV (0.15–10 µM) or DMSO and loaded onto gels. […] Colloidal blue staining and western blotting with anti‐PKL antibodies confirmed the predominance and identity of the bands (Figure S11a,d). […] PKM2 and PKL exist in equilibrium between oligomeric states, with PKM2 mainly dimeric when unbound.^[ [18] ^] As oligomerization regulates PK function,^[ [11], [54] ^] PKLNluc oligomerization was compared to PKLwt and PKM2 (Figure 4b,c). […] Colloidal blue and anti‐PKM2 blots confirmed PKM2 was mostly monomeric, explaining the lack of binding (Figure S11).
Recombinant PKLNLuc (4 x 950 ng) was incubated for 1 hour at ambient temperature with different concentrations of compound IV in a total volume of 60 µL Tris-HCl buffer pH 7.4 (50 mM Tris, 100 mM KCl, 10 mM MgCl2, 0.05% Tween 20). PKM2 and PKL recombinants (2 x 950 ng) were also incubated for 1 hour at ambient temperature with different concentrations of the compound IV (0, 2.5 and 10 µM). […]
A ChemiDoc imager (Bio-Rad, Alexa 488 filter) was used for fluorescence detection of compound IV bound to the proteins. […] The images of the in-gel fluorescence and luminescence detection were superimposed. […]

PKL = PKL (Homo sapiens, UniProt P30613); test: Surface plasmon resonance, PKL
Experimental: The surface was washed with 10 mM NaOH, 1M NaCl followed by immobilization of protein before subsequent deactivation by 1 M ethanolamine. Immobilization levels were typically 12000-16000 RU. The reference spot was treated as described, omitting the injection of PKL. Compound concentration series was injected over the immobilized protein in increasing concentrations using multi cycle (MCK) or single cycle kinetics (SCK) in running buffer (10 mM HEPES, 150 mM NaCl, 0.05% Tween20, 0.3% DMSO, pH 7.4). A 1:1 Langmuir interaction model is fitted to the experimental traces, enabling determination of kon, koff and Kd.

PKM2 = PKM2 (Homo sapiens, UniProt P14618); test: Recombinant PKM2 activity assay (Kinase-Glo MAX); type: biochemical; set-up: made in house
Experimental: As these compounds were binding to a known allosteric site on PK, the effects of ligands I–IV on the enzymatic activities of PKL and PKM2 were determined (Figure S2). The two isozymes were incubated with increasing concentrations of compounds before the addition of substrates PEP and adenosine diphosphate (ADP), and the reactions were monitored using a Kinase‐Glo MAX assay.
Figure S2. Effects of ligands I-IV on recombinant PK activities. PKL or PKM2 (10 nM) were pre-incubated with the compounds (0-100 µM) for 15 min following the addition of PEP (0.1 mM) and ADP (0.2 mM). The reactions were terminated by the addition of Kinase Glo-MAX reagent after 10 min, and the luminescence from each reaction was quantified using a plate reader. The activity values are expressed as a percentage of PK activity of the DMSO control. The potencies were calculated by best fit of the Hill equation to the luminescence data.^[2] (A) PKL titrations. (B) PKM2 titrations. Error bars represent the ±SE of replicates (n = 3).

Chain of PKL (P30613 1-543 isoform P30613-2): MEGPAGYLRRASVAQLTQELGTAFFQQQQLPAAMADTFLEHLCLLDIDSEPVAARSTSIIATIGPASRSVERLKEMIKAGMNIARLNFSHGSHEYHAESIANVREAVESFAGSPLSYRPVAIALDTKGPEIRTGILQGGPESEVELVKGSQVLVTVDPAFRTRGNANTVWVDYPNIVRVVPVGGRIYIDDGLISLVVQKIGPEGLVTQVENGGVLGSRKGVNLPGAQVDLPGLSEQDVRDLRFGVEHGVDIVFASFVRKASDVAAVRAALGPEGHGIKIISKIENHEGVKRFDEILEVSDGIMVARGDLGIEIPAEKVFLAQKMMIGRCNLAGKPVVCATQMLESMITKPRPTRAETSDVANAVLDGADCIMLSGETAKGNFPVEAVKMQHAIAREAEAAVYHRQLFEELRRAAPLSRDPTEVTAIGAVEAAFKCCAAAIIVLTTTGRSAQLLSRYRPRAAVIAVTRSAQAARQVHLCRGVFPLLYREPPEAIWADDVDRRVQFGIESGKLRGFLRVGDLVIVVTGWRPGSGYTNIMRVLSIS
Chain of PKM2 (P14618 whole entry): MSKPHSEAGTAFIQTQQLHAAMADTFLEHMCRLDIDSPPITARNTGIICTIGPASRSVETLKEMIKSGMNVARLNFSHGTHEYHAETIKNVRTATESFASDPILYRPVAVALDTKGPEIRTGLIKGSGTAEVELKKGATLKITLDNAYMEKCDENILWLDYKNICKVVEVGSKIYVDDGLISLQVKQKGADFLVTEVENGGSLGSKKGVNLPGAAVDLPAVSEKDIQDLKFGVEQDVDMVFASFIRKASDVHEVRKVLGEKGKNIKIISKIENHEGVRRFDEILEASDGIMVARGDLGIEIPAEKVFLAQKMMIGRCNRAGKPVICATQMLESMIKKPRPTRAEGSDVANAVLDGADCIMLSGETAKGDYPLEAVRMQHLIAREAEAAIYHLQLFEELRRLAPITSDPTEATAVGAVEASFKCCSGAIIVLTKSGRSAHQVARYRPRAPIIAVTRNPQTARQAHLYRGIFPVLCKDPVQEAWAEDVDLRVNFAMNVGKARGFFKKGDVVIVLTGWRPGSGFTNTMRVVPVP

Kd (PKL; K D SPR (PKL), 20 °C, mean ± SE n=3): 37 ± 1 nM
Kd (PKL; KD, independent replicates, single cycle kinetics, 1:1 Langmuir fit, Figure S14): 38.8 nM and 36.9 nM
PKL selectivity over PKM2 (PKL; SPR K D PKM2 vs PKL): 37 fold
koff (PKL; read-out: k off SPR (PKL)): 0.00617 s⁻¹
kon (PKL; read-out: k on SPR (PKL)): 168000 M⁻¹ s⁻¹
PKM2 E max (PKM2; recombinant PKM2): 449 % of vehicle
EC50 (PKM2; recombinant PKM2 10 nM, 15 min pre-incubation, PEP 0.1 mM, ADP 0.2 mM): 17 nM
Compound: CN(C)c1ccc(S(=O)(=O)c2ccc3c(=O)n(Cc4cc[nH]n4)ncc3c2)c2nonc12 [Compound IV, 2-((1H-Pyrazol-3-yl)methyl)-6-((7-(dimethylamino)benzo[c][1,2,5]oxadiazol-4-yl)sulfonyl)phthalazin-1(2H)-one]
in-gel fluorescence labeling of oligomers (PKLNluc and PKLwt): labeling only of the tetramers
in-gel fluorescence labeling of oligomers (PKLNluc and PKLwt; listed as LumiPK): exclusively to the tetrameric form of PKL
